The results in this text go back to patent publication US20260337212A1, “IP4-4,6 SUBSTITUTED DERIVATIVE COMPOUNDS FOR USE IN THE TREATMENT, INHIBITION OF PROGRESSION, AND PREVENTION OF ECTOPIC CALCIFICATION” (SANIFIT THERAPEUTICS, S.A., priority 2022, published 2026).

A short description of series [1]: Rat vitamin D3 model: blood perfusion of posterior limbs by laser doppler perfusion imaging. The series is classed as in vivo, Sprague Dawley rat. Particulars: FIG. 13. On the procedure:
Statistical analysis: One-way ANOVA with Fisher's LSD test for post-hoc comparisons. The result of the ANOVA was p<0.0001. (#) indicates significant differences vs sham, (*) indicates significant differences vs vehicle, (§) indicates significant differences vs Compound 27 5 mg/kg (only applies to other Compound 27 doses), p<0.05. N=10-12 animals/group.
The model evaluated the effects of Compound 27 on tissue calcification, blood perfusion, and walking ability in rats for a duration of 13 days. Tissue calcification was induced in groups 2-5 from D1 to D3. Animals induced with calcification were administered placebo or active agent formulations from D1 onwards to assess their effects in preventing calcification. The impact of treatment on tissue calcification, blood perfusion, and walking ability was evaluated. Observations were taken at several points during the treatment from D0 to D13. All animals were weighed every day before treatment. […]
Blood perfusion (BP) was evaluated by laser doppler perfusion imaging applied to the posterior limbs of the animals using a PeriCam PSI Normal Resolution analyzer (Perimed A B, Järfälla, S E). […] The perfusion ratio (i.e., mean of the two legs) was calculated by comparing the baseline and either D4 or D13 readings for each group. In addition, the perfusion ratio was calculated by comparing group 1 and groups 2-5.

Series [2] concerns abcc6a−/− zebrafish larvae. Put plainly: abcc6a−/− zebrafish model of Pseudoxanthoma elasticum: spinal column hypermineralization (Alizarin Red). Particulars: 3 to 10 dpf. The series is classed as in vivo. On the procedure: FIG. 16 depicts an analysis of hypermineralization using Alizarin Red staining in 10 dpf abcc6a^−/− zebrafish larvae. The larvae were kept in E3-medium (n=20) and E3-medium supplemented with Compound 27 1 mM (n=18) from 3 to 10 dpf.
A stable CRISPR/Cas9 abcc6a^−/− zebrafish model characterized for spinal column hypermineralization was used for assaying the efficacy of Compound 27 in the treatment of Pseudoxanthoma elasticum (PXE; Van Gils M, et al., J Invest Dermatol […]; 138:2333-2342).
Abcc6a^−/− larvae were treated with Compound 27 at different concentrations (i.e., 100 μM, 300 μM, and 1 mM) for 7 days, starting at 3 days post fertilization (dpf), with daily refreshment of the medium containing the solved compounds. On 10 dpf, the larvae were euthanized and stained with Alizarin Red to visualize the spinal column hypermineralization, using a Leica M165 FC microscope (Leica Microsystems GmbH, Wetzlar, DE). Semi-quantification of calcification was done through image processing with ImageJ […] (Rasband W, Research Services Branch, NIH, Bethesda, MD, US).

A short description of series [3]: In vitro inhibition of calcium phosphate crystallization in human plasma (spectrophotometric). The series is classed as biochemical. Particulars: 0-100 μM, 1.5 mM phosphate, 12.5 mM calcium, pH 7.4, 30 min, rt, read-out: Relative Potency (EC50, inhibition of calcium phosphate crystallization). The essentials:
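Human plasma spiked with compound (0-100 μM), centrifuged, then brought to final 1.5 mM phosphate and 12.5 mM calcium, pH 7.4. Absorbance at 550 nm read every 3 min for 30 min at rt; inhibition from slopes (6-24 min, absorbance vs log time) relative to blank plasma.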

pEC50: −log10 of the molar value.

The term pEC50 denotes the negative decadic logarithm of the EC50, by convention in mol/L. Take “4,6-O-bis(5-acetamidopentyl)-myo-inositol-1,2,3,5-tetrakis(phosphate) octasodium salt [Compound 27]”: the “Effect on blood perfusion” value in series [1] (5, 15, 45 mg/kg s.c. daily, D13) is “dose-response effect from 5 mg/kg”. Further, in series [1] (15 and 45 mg/kg s.c. daily), the “Recovery of posterior limb blood perfusion” value is “recovery of posterior limb blood perfusion at doses of 15 and 45 mg/kg”. In addition, in series [2] (1 mM in E3-medium, FIG. 16), the “Reduction of spinal hypermineralization (in words)” value is on record as “Significant reduction of spinal hypermineralization”. Also, in series [2] (1 mM in medium), the “Average reduction of spinal column hypermineralization” value was 60%; the “Physiological calcification and bone formation” value was “conservation of the physiological calcification and bone formation”; the “Significance (p) of reduced spinal hypermineralization vs untreated” value is listed as less than 0.001. For the same substance, the Relative calcified area in series [2] (1 mM in medium, untreated 35.2) turned out to be 14.17. In addition, in series [3], the pEC50 is no less than 5.30.
